{
  "source": "BigSolDB 2.1",
  "data": [
    {"smiles": "NC(=O)c1cnccn1", "values": [
      {"measurement": "solubility (mole fraction)", "setting": "in 1,4-dioxane, 293.15 K", "result": 0.0072},
      {"measurement": "solubility (mole fraction)", "setting": "in 1,4-dioxane, 303.15 K", "result": 0.0107},
      {"measurement": "solubility (mole fraction)", "setting": "in 1,4-dioxane, 313.15 K", "result": 0.0138},
      {"measurement": "solubility (mole fraction)", "setting": "in 1,4-dioxane, 323.15 K", "result": 0.0202},
      {"measurement": "solubility (mole fraction)", "setting": "in 1,4-dioxane, 333.15 K", "result": 0.0285},
      {"measurement": "solubility (mole fraction)", "setting": "in acetone, 283.15 K", "result": 0.00244},
      {"measurement": "solubility (mole fraction)", "setting": "in acetone, 293.15 K", "result": 0.00386},
      {"measurement": "solubility (mole fraction)", "setting": "in acetone, 303.15 K", "result": 0.00583},
      {"measurement": "solubility (mole fraction)", "setting": "in acetone, 313.15 K", "result": 0.00768},
      {"measurement": "solubility (mole fraction)", "setting": "in acetone, 323.15 K", "result": 0.0116},
      {"measurement": "solubility (mole fraction)", "setting": "in methanol, 283.15 K", "result": 0.00268},
      {"measurement": "solubility (mole fraction)", "setting": "in methanol, 293.15 K", "result": 0.00398},
      {"measurement": "solubility (mole fraction)", "setting": "in methanol, 303.15 K", "result": 0.00586},
      {"measurement": "solubility (mole fraction)", "setting": "in methanol, 313.15 K", "result": 0.0086},
      {"measurement": "solubility (mole fraction)", "setting": "in methanol, 323.15 K", "result": 0.0122}
    ]}
  ]
}
